# Laboratory results published in ChEMBL document CHEMBL1158227, “Effect of Polygonum hydropiper sulfated flavonoids on lens aldose reductase and related enzymes” (J Nat Prod, 1996).
# Active and inactive are the calls of the source. The rule behind the calls is not given here.
# Experiments:
# [1] = target: Aldo-keto reductase family 1 member B1 (Sus scrofa, UniProt P80276); assay: Inhibition of pig lens aldose reductase by spectrophotometry
# [2] = Inhibition of pig kidney aldehyde reductase by spectrophotometry; set-up: species or system Sus scrofa
# [3] = Inhibition of bovine liver NADH oxidase; set-up: species or system Bos taurus
# [4] = target: Aldo-keto reductase family 1 member B1 (Sus scrofa) (UniProt P80276); assay: Inhibition of pig lens aldose reductase at 1.8 uM by Lineweaver-Burke plot
# [5] = target: Aldo-keto reductase family 1 member B1 (Sus scrofa) (UniProt P80276); assay: Inhibition of pig lens aldose reductase at 0.54 uM by Lineweaver-Burke plot
Structure (SMILES),IC50 [1] [µM],IC50 [2] [µM],IC50 [3] [µM],Activity [4],Activity [5]
COc1cc(O)c2c(=O)c(OS(=O)(=O)O)c(-c3ccc(O)c(OC)c3)oc2c1,30.1,43.5,> 67,,
COc1ccc(-c2oc3cc(OS(=O)(=O)O)cc(O)c3c(=O)c2O[C@@H]2O[C@H](CO)[C@@H](O)[C@H](O)[C@H]2O)cc1O,5,> 50,> 50,,
O=c1c(OS(=O)(=O)O)c(-c2ccc(O)c(O)c2)oc2cc(O)cc(O)c12,50.9,55.6,> 71,,
COc1cc(-c2oc3cc(OS(=O)(=O)O)cc(O)c3c(=O)c2OS(=O)(=O)O)ccc1O,1.8,49.5,> 54,Active,Active
O=c1c(O[C@@H]2O[C@H](CO)[C@@H](O)[C@H](O)[C@H]2O)c(-c2ccc(O)c(O)c2)oc2cc(O)cc(O)c12 [ISOQUERCETIN],16,> 64,> 64,,
COc1cc(-c2oc3cc(O)cc(O)c3c(=O)c2O)ccc1O [ISORHAMNETIN],> 95,> 95,88.6,,
COc1cc(-c2oc3cc(O)cc(O)c3c(=O)c2OS(=O)(=O)O)ccc1O [PERSICARIN],69,> 69,> 69,,
O=c1c(O)c(-c2ccc(O)c(O)c2)oc2cc(O)cc(O)c12 [QUERCETIN],50.1,> 91,65.3,,
COc1cc(O)c2c(=O)c(O)c(-c3ccc(O)c(OC)c3)oc2c1 [RHAMNAZIN],> 91,> 91,> 91,,
